In ChEMBL document CHEMBL3992518, “Peptide Macrocycle Inhibitor of Coagulation Factor XII with Subnanomolar Affinity and High Target Selectivity” (J Med Chem, 2017) one finds Ki data, which are given here for 16 compounds.

*1 amine or outer side, *2 acyl side, *3 side chain or, on linkers, in order; H or OH if unused. Where a SMILES comes first, the peptide text is derived from it. Bridges are numbered along the chain shown (N, C = ends). [ ]: non-standard residue; d: D form. TATA = O=C(CC[*:1])N1CN(C(=O)CC[*:2])CN(C(=O)CC[*:3])C1; Phe(4-guanidino) = N=C(N)Nc1ccc(C[C@H](N)C(=O)O)cc1; Nle = CCCC[C@H](N)C(=O)O Bounds are passed on as bounds.

In the test the target is T1, Coagulation factor XII (Homo sapiens, UniProt P00748).
T1 sequence (P00748 whole entry): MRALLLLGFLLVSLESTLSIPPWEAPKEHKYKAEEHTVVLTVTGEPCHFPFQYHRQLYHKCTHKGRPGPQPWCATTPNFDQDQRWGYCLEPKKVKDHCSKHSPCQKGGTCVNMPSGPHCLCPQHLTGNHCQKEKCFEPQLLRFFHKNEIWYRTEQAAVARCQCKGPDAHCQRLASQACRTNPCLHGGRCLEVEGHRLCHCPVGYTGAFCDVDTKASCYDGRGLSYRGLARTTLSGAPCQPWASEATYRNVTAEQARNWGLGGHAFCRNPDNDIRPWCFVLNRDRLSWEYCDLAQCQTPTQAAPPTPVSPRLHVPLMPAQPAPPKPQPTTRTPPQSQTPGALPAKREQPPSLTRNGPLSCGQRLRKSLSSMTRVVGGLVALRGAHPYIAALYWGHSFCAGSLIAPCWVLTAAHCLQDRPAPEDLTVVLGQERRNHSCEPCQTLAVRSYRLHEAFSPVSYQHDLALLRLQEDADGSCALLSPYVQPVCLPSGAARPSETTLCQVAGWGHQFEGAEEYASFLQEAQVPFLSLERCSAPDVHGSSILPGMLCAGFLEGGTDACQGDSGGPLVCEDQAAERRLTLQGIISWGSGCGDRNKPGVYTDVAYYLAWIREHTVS
Put plainly: Inhibition of human beta factor 12a using fluorogenic substrate Boc-Gln-Gly-Arg-AMC preincubated for 10 mins followed by addition of substrate measured every min for 30 mins.
Turning to `CC[C@H](C)[C@@H]1NC(=O)[C@@H](NC(=O)[C@@H](N)CCCNC(=N)N)CSCCC(=O)N2CN3CN(C2)C(=O)CCSC[C@H](NC(=O)[C@@H]2CCCN2C(=O)[C@H](CC(C)C)NC(=O)[C@H](CCCNC(=N)N)NC1=O)C(=O)N[C@@H](CCCNC(=N)N)C(=O)N[C@@H](CCC(N)=O)C(=O)N[C@@H](CC(C)C)C(=O)N[C@@H](CCCNC(=N)N)C(=O)N[C@H](C(=O)N[C@@H](CCCNC(=N)N)C(=O)N[C@@H](Cc1c[nH]c2ccccc12)C(=O)O)CSCCC3=O` (H-RCIRLPCRQLRCRW-OH; linker 2-7-12 via TATA), the affinity, expressed as Ki, was 0.31 µM. For `CC(C)C[C@@H]1NC(=O)[C@H](CCC(=O)O)NC(=O)[C@H](CCCNC(=N)N)NC(=O)[C@@H]2CSCCC(=O)N3CN(CN(C3)C(=O)CCSC[C@H](NC(=O)[C@@H](N)CCCNC(=N)N)C(=O)N[C@@H](Cc3ccccc3)C(=O)N[C@@H](CCCNC(=N)N)C(=O)N[C@@H](CC(C)C)C(=O)N3CCC[C@H]3C(=O)N2)C(=O)CCSC[C@@H](C(=O)N[C@@H](CCCNC(=N)N)C(=O)N[C@@H](Cc2c[nH]c3ccccc23)C(=O)O)NC(=O)[C@H](CCCNC(=N)N)NC1=O` (H-RCFRLPCRELRCRW-OH; linker 2-7-12 via TATA) the value was > 3 µM; for `CC(C)C[C@@H]1NC(=O)[C@H](CCC(N)=O)NC(=O)[C@H](CCCNC(=N)N)NC(=O)[C@@H]2CSCCC(=O)N3CN(CN(C3)C(=O)CCSC[C@H](NC(=O)[C@@H](N)CCCNC(=N)N)C(=O)N[C@@H](Cc3cccc(F)c3)C(=O)N[C@@H](CCCNC(=N)N)C(=O)N[C@@H](CC(C)C)C(=O)N3CCC[C@H]3C(=O)N2)C(=O)CCSC[C@@H](C(=O)N[C@@H](CCCNC(=N)N)C(=O)N[C@@H](Cc2c[nH]c3ccccc23)C(=O)O)NC(=O)[C@H](CCCNC(=N)N)NC1=O`, 0.0045 µM; for `CC(C)C[C@@H]1NC(=O)[C@H](CCC(N)=O)NC(=O)[C@H](CCCNC(=N)N)NC(=O)[C@@H]2CSCCC(=O)N3CN(CN(C3)C(=O)CCSC[C@H](NC(=O)[C@@H](N)CCCNC(=N)N)C(=O)N[C@@H](Cc3c[nH]c4ccccc34)C(=O)N[C@@H](CCCNC(=N)N)C(=O)N[C@@H](CC(C)C)C(=O)N3CCC[C@H]3C(=O)N2)C(=O)CCSC[C@@H](C(=O)N[C@@H](CCCNC(=N)N)C(=O)N[C@@H](Cc2c[nH]c3ccccc23)C(=O)O)NC(=O)[C@H](CCCNC(=N)N)NC1=O` (H-RCWRLPCRQLRCRW-OH; linker 2-7-12 via TATA), 0.012 µM.

For `CC(C)C[C@@H]1NC(=O)[C@H](CC(=O)O)NC(=O)[C@H](CCCNC(=N)N)NC(=O)[C@@H]2CSCCC(=O)N3CN(CN(C3)C(=O)CCSC[C@H](NC(=O)[C@@H](N)CCCNC(=N)N)C(=O)N[C@@H](Cc3ccccc3)C(=O)N[C@@H](CCCNC(=N)N)C(=O)N[C@@H](CC(C)C)C(=O)N3CCC[C@H]3C(=O)N2)C(=O)CCSC[C@@H](C(=O)N[C@@H](CCCNC(=N)N)C(=O)N[C@@H](Cc2c[nH]c3ccccc23)C(=O)O)NC(=O)[C@H](CCCNC(=N)N)NC1=O` (H-RCFRLPCRDLRCRW-OH; linker 2-7-12 via TATA), the inhibitory constant (Ki) is 0.55 µM. On to `CC(C)CC[C@@H]1NC(=O)[C@H](CCC(N)=O)NC(=O)[C@H](CCCNC(=N)N)NC(=O)[C@@H]2CSCCC(=O)N3CN(CN(C3)C(=O)CCSC[C@H](NC(=O)[C@@H](N)CCCNC(=N)N)C(=O)N[C@@H](Cc3ccccc3)C(=O)N[C@@H](CCCNC(=N)N)C(=O)N[C@@H](CC(C)C)C(=O)N3CCC[C@H]3C(=O)N2)C(=O)CCSC[C@@H](C(=O)N[C@@H](CCCNC(=N)N)C(=O)N[C@@H](Cc2c[nH]c3ccccc23)C(=O)O)NC(=O)[C@H](CCCNC(=N)N)NC1=O`, for which the affinity, expressed as Ki, was 0.0294 µM. With `CC(C)C[C@@H]1NC(=O)[C@H](CCC(N)=O)NC(=O)[C@H](CCCNC(=N)N)NC(=O)[C@@H]2CSCCC(=O)N3CN(CN(C3)C(=O)CCSC[C@H](NC(=O)[C@@H](N)CCCNC(=N)N)C(=O)N[C@@H](Cc3ccc(F)cc3)C(=O)N[C@@H](CCCNC(=N)N)C(=O)N[C@@H](CC(C)C)C(=O)N3CCC[C@H]3C(=O)N2)C(=O)CCSC[C@@H](C(=O)N[C@@H](CCCNC(=N)N)C(=O)N[C@@H](Cc2c[nH]c3ccccc23)C(=O)O)NC(=O)[C@H](CCCNC(=N)N)NC1=O`, the Ki was 0.00089 µM. In turn, `CC(C)C[C@@H]1NC(=O)[C@H](CCC(N)=O)NC(=O)[C@H](CCCNC(=N)N)NC(=O)[C@@H]2CSCCC(=O)N3CN(CN(C3)C(=O)CCSC[C@H](NC(=O)[C@@H](N)CCCNC(=N)N)C(=O)N[C@@H](Cc3ccccc3)C(=O)N[C@@H](Cc3ccc(NC(=N)N)cc3)C(=O)N[C@@H](CC(C)C)C(=O)N3CCC[C@H]3C(=O)N2)C(=O)CCSC[C@@H](C(=O)N[C@@H](CCCNC(=N)N)C(=O)N[C@@H](Cc2c[nH]c3ccccc23)C(=O)O)NC(=O)[C@H](CCCNC(=N)N)NC1=O` (H-RCF[Phe(4-guanidino)]LPCRQLRCRW-OH; linker 2-7-12 via TATA) gave a Ki of 0.38 µM.

The compound `CC(C)C[C@@H]1NC(=O)[C@H](CCC(N)=O)NC(=O)[C@H](CCCNC(=N)N)NC(=O)[C@@H]2CSCCC(=O)N3CN(CN(C3)C(=O)CCSC[C@H](NC(=O)[C@@H](N)CCCNC(=N)N)C(=O)N[C@@H](C)C(=O)N[C@@H](CCCNC(=N)N)C(=O)N[C@@H](CC(C)C)C(=O)N3CCC[C@H]3C(=O)N2)C(=O)CCSC[C@@H](C(=O)N[C@@H](CCCNC(=N)N)C(=O)N[C@@H](Cc2c[nH]c3ccccc23)C(=O)O)NC(=O)[C@H](CCCNC(=N)N)NC1=O` (H-RCARLPCRQLRCRW-OH; linker 2-7-12 via TATA) displayed a Ki of 0.132 µM. `CC(C)C[C@@H]1NC(=O)[C@H](CCC(N)=O)NC(=O)[C@H](CCCNC(=N)N)NC(=O)[C@@H]2CSCCC(=O)N3CN(CN(C3)C(=O)CCSC[C@H](NC(=O)[C@@H](N)CCCNC(=N)N)C(=O)N[C@@H](Cc3ccccc3F)C(=O)N[C@@H](CCCNC(=N)N)C(=O)N[C@@H](CC(C)C)C(=O)N3CCC[C@H]3C(=O)N2)C(=O)CCSC[C@@H](C(=O)N[C@@H](CCCNC(=N)N)C(=O)N[C@@H](Cc2c[nH]c3ccccc23)C(=O)O)NC(=O)[C@H](CCCNC(=N)N)NC1=O` came in with a Ki of 0.0268 µM.

For `CC(C)C[C@@H]1NC(=O)[C@H](Cc2cnc[nH]2)NC(=O)[C@H](CCCNC(=N)N)NC(=O)[C@@H]2CSCCC(=O)N3CN(CN(C3)C(=O)CCSC[C@H](NC(=O)[C@@H](N)CCCNC(=N)N)C(=O)N[C@@H](Cc3ccccc3)C(=O)N[C@@H](CCCNC(=N)N)C(=O)N[C@@H](CC(C)C)C(=O)N3CCC[C@H]3C(=O)N2)C(=O)CCSC[C@@H](C(=O)N[C@@H](CCCNC(=N)N)C(=O)N[C@@H](Cc2c[nH]c3ccccc23)C(=O)O)NC(=O)[C@H](CCCNC(=N)N)NC1=O` (H-RCFRLPCRHLRCRW-OH; linker 2-7-12 via TATA), the Ki is > 3 µM. For `CC(C)C[C@@H]1NC(=O)[C@H](CCC(N)=O)NC(=O)[C@H](CCCNC(=N)N)NC(=O)[C@@H]2CSCCC(=O)N3CN(CN(C3)C(=O)CCSC[C@H](NC(=O)[C@@H](N)CCCNC(=N)N)C(=O)N[C@@H](Cc3ccccc3)C(=O)N[C@@H](CCCNC(=N)N)C(=O)N[C@@H](C)C(=O)N3CCC[C@H]3C(=O)N2)C(=O)CCSC[C@@H](C(=O)N[C@@H](CCCNC(=N)N)C(=O)N[C@@H](Cc2c[nH]c3ccccc23)C(=O)O)NC(=O)[C@H](CCCNC(=N)N)NC1=O` (H-RCFRAPCRQLRCRW-OH; linker 2-7-12 via TATA), the inhibition constant (Ki) is > 3 µM. For `CCC(CC)C1NC(=O)[C@H](CCC(N)=O)NC(=O)[C@H](CCCNC(=N)N)NC(=O)[C@@H]2CSCCC(=O)N3CN(CN(C3)C(=O)CCSC[C@H](NC(=O)[C@@H](N)CCCNC(=N)N)C(=O)N[C@@H](Cc3ccccc3)C(=O)N[C@@H](CCCNC(=N)N)C(=O)N[C@@H](CC(C)C)C(=O)N3CCC[C@H]3C(=O)N2)C(=O)CCSC[C@@H](C(=O)N[C@@H](CCCNC(=N)N)C(=O)N[C@@H](Cc2c[nH]c3ccccc23)C(=O)O)NC(=O)[C@H](CCCNC(=N)N)NC1=O` (stereo partly specified) the value was 0.038 µM.

As for `CCCC[C@@H]1NC(=O)[C@H](CCCNC(=N)N)NC(=O)[C@H](Cc2ccccc2)NC(=O)[C@@H](NC(=O)[C@@H](N)CCCNC(=N)N)CSCCC(=O)N2CN3CN(C2)C(=O)CCSC[C@H](NC(=O)[C@@H]2CCCN2C1=O)C(=O)N[C@@H](CCCNC(=N)N)C(=O)N[C@@H](CCC(N)=O)C(=O)N[C@@H](CC(C)C)C(=O)N[C@@H](CCCNC(=N)N)C(=O)N[C@H](C(=O)N[C@@H](CCCNC(=N)N)C(=O)N[C@@H](Cc1c[nH]c2ccccc12)C(=O)O)CSCCC3=O` (H-RCFR[Nle]PCRQLRCRW-OH; linker 2-7-12 via TATA), the inhibition constant Ki is > 3 µM.

For `CC(C)C[C@@H]1NC(=O)[C@H](CCC(N)=O)NC(=O)[C@H](CCCNC(=N)N)NC(=O)[C@@H]2CSCCC(=O)N3CN(CN(C3)C(=O)CCSC[C@H](NC(=O)[C@@H](N)CCCNC(=N)N)C(=O)N[C@@H](Cc3ccc([N+](=O)[O-])cc3)C(=O)N[C@@H](CCCNC(=N)N)C(=O)N[C@@H](CC(C)C)C(=O)N3CCC[C@H]3C(=O)N2)C(=O)CCSC[C@@H](C(=O)N[C@@H](CCCNC(=N)N)C(=O)N[C@@H](Cc2c[nH]c3ccccc23)C(=O)O)NC(=O)[C@H](CCCNC(=N)N)NC1=O`, the affinity corresponds to a Ki of 0.00164 µM. For `CC(C)C[C@@H]1NC(=O)[C@H](CCC(N)=O)NC(=O)[C@H](CCCNC(=N)N)NC(=O)[C@@H]2CSCCC(=O)N3CN(CN(C3)C(=O)CCSC[C@H](NC(=O)[C@@H](N)CCCNC(=N)N)C(=O)N[C@@H](Cc3cccnc3)C(=O)N[C@@H](CCCNC(=N)N)C(=O)N[C@@H](CC(C)C)C(=O)N3CCC[C@H]3C(=O)N2)C(=O)CCSC[C@@H](C(=O)N[C@@H](CCCNC(=N)N)C(=O)N[C@@H](Cc2c[nH]c3ccccc23)C(=O)O)NC(=O)[C@H](CCCNC(=N)N)NC1=O` the value was 0.003 µM.

One may read the Ki as a measure of affinity in units of concentration, obtained from inhibition or displacement. A low value points to higher affinity.
